Counter-ions that a name gives are not always drawn.
Columns and labels:
P388 leukemia = assay: Therapeutic activity in P388 leukemia treatment (survival); type: in vivo, BDFl female mice; details: for ILS (%): survival increase vs untreated controls
Procedure: The following tables and the enclosed figures refer to experiments carried out on BDFl mice inoculated with P388 leukemic cells and wherein the effect of DDP-Pd.HCl combination is compared, in terms of toxicity and therapeutic efficacy, with the one of the different components. From Pd-HCl toxicity results, which are reported in Table 1, the 50 mg/kg of Pd.HCl dose was selected for the investigations suited for the evaluation of DDP-Pd.HCl combination toxicity and therapeutic efficacy.

[1] = test system: kidneys of P388 leukemic BDFl mice; assay: Histological evaluation of renal damage; type: in vivo
Procedure: Stromal connective, wherein rare and scattered fibroblasts were detected, appeared remarkably thickened with resulting intertubular space increase. Renal corpuscle morphology appeared in a good preservation state in the components thereof and a slight increase of the glomerular chamber was recognized in few corpuscles only.
Immediately after withdrawal, renal parenchyma was fixed with 2.5% glutaraldehyde in 0.1 M Na cacodylate buffer (pH = 7.4) for 120 min.
After washing in the same buffer, the samples were dehydrated with ethanol and embedded in Epon 812. LKB Ultratom III microtome 2 µm sections were stained with aqueous 1% toluidine blue.

[2] = DDP 8 mg/kg i.p. days 1 and 5, vehicle H2O
[3] = DDP 16 mg/kg i.p. day 1, vehicle 0,9% NaCl
[4] = DDP 16 mg/kg i.p. day 1, vehicle H2O
[5] = Pd.HCl 50 mg/kg in H2O i.v., no DDP

Row | Structure (SMILES) | Survivors on day 60 (alive/treated) (P388 leukemia; [2]) | MST (P388 leukemia; DDP 8 mg/kg i.p. days 1 and 5, vehicle H2O, median survival time, untreated controls 12 days) [days] | ILS (%) (P388 leukemia; [2]) | Survivors on day 60 (alive/treated) (P388 leukemia; [3]) | MST (P388 leukemia; DDP 16 mg/kg i.p. day 1, vehicle 0,9% NaCl, median survival time, untreated controls 12 days) [days] | ILS (%) (P388 leukemia; [3]) | Survivors on day 60 (alive/treated) (P388 leukemia; [4]) | MST (P388 leukemia; DDP 16 mg/kg i.p. day 1, vehicle H2O, median survival time, untreated controls 12 days) [days] | ILS (%) (P388 leukemia; [4]) | Hystological evaluation of renal damage ([1]; 8 mg/kg of DDP alone at days 1, 5 and 9, mice killed the 10th day, cortical zone) | MST (P388 leukemia; [5]) [days] | Survivors on day 60 (alive/treated) (P388 leukemia; [5]) | ILS (%) (P388 leukemia; [5]) | antitumor activity (P388 leukemia; procainamide by itself) | Hystological evaluation of renal damage ([1]; mouse, in vivo, 50 mg/kg)
1 | N.N.[Cl][Pt][Cl] [DDP, Cisplatin] | 0/8 | 7 | -42 | 2/10 | 22 | 83 | 0/10 | 5 | -58 | renal parenchyma alterations | – | – | – | – | –
2 | CCN(CC)CCNC(=O)c1ccc(N)cc1 [Pd.HCl, procainamide hydrochloride] | – | – | – | – | – | – | – | – | – | – | 13 | 0/8 | 8,3% | no antitumor activity | a picture similar to the one observed with DDP only

Source: patent EP0639978B1, “PHARMACEUTICAL COMBINATION HAVING ANTINEOPLASTIC ACTIVITY” (priority 1991, dated 1992)
